Patent US9738720B2, “Monoclonal antibodies against HER2 epitope and methods of use thereof” (Mersana Therapeutics, Inc., priority 2014, dated 2017)

How the values were obtained:
[1] = tested on: phosphorylated AKT in BT474 cells; assay: Ligand-independent HER2 signaling in BT474 cells, phospho-AKT western; format: cell-based; settings: 10 μg/ml antibody, 4 hours, listed as HT19B
Experimental: The effect of anti-HER2 antibodies on HER2 signaling in BT474 cells (ATCC, HTB-20) was determined by measuring changes in the amount of phosphorylated AKT after a 4 hour antibody treatment. BT474 cells (300,000 cells) were plated in DMEM media with 10% FBS in each well of 6 well culture dishes and grown overnight at 37° in 5% CO2 atmosphere. The media was removed and replaced with fresh media containing 10 μg/ml of test antibody and incubated for 4 hours. The cells were washed once with ice cold PBS and lysed by addition of 200 μl of buffer containing 50 mM Tris HCl, pH 7.4, 150 mM NaCl, 1% Triton X-100, cOmplete Protease Inhibitor cocktail tablets (Roche, Indianapolis, Ind.) and PhosSTOP phosphatase Inhibitor cocktail tablets (Roche, Indianapolis, Ind.). Lysates were centrifuged at 15,000 rpm for 15 minutes at 4° to remove insoluble debris. The levels of phosphorylated AKT were determined by western analysis. […] The bands corresponding to AKT, phospho-AKT, and to actin were quantified using the scanner software. Each phospho-AKT band was normalized to the total AKT band and expressed as a percentage of phospho-AKT protein from cells that were not treated with any anti-HER2 antibodies.

SKBR3 cells [2] = assay: Internalization rate with anti-HER2 antibody combination; format: cell-based
Experimental: For the assay, 40,000 SKBR3 cells were plated in DMEM media containing 10% FBS, in each well of three 96 well plates (black colored plates with clear bottomed wells) and allowed to attach overnight at 37° in 5% CO2. The next day the cells were treated with antibodies as follows. […] The unbound antibody was removed by washing the cells two times with ice cold media. For detection, 5 μg/ml of an Alexa 647 labelled anti-human IgG Fab fragment was added to each well in ice cold media and incubated on ice for 1 hr. The unbound secondary antibody was removed by washing each well 2 times with ice cold media. […] Each treatment was carried out in triplicate. One set of wells were treated with the Alexa 647 labelled anti-human IgG monovalent Fab fragment alone, and the fluorescence measured in these wells was used to subtract background fluorescence.
One plate was left on ice to determine the time 0 values for each treatment, and the other plates were incubated at 37° C. After 1.5 hours, one plate from 37° C., and the time 0 plate, were washed 2 times with ice cold PBS and scanned using the 680 nm channel of a Licor Odyssey scanner. The fluorescence measured in each well is used as the total fluorescence for each treatment. The cells were then acid washed 2 times with 100 mM glycine, 50 mM KCl, and 20 mM […], pH2.2, then washed two times with ice cold PBS to remove the surface bound antibodies. The plates were scanned again to determine the amount of internalized fluorescence in each well. The 24 hour plates were analyzed the same way the next day.

[3] = biological target: T1, HER2 protein in SKBR3 cells (Homo sapiens, UniProt P04626); assay: HER2 degradation, western analysis; format: cell-based; settings: 4 hours; for HER2 remaining: 10 μg/ml each, combined with trastuzumab and pertuzumab; for full length HER2, percentage of untreated cells: 10 μg/ml, test antibody alone or in combination with trastuzumab
T1 construct: endogenous in cells; host or cells: SKBR3
Experimental: The effect of anti-HER2 antibodies on HER2 degradation in SKBR3 cells was determined by western analysis after antibody treatment. 300,000 SKBR3 cells were plated in DMEM media with 10% FBS in each well of 6 well culture dishes and grown overnight at 37° in 5% CO2 atmosphere. The media was removed and replaced with fresh media containing 10 μg/ml of each antibody and incubated for 4 hours. The cells were washed once with ice cold PBS and lysed by addition of 200 μl of buffer containing 50 mM Tris HCl, pH 7.4, 150 mM NaCl, 1% Triton X-100, cOmplete Protease Inhibitor cocktail tablets (Roche, Indianapolis, Ind.) and PhosSTOP phosphatase Inhibitor cocktail tablets (Roche, Indianapolis, Ind.). Lysates were centrifuged at 15,000 rpm for 15 minutes at 4° to remove insoluble debris. […] The separated proteins were transferred to a nitrocellulose membrane on a semi-dry electrophoretic transfer system (Bio-Rad, Transblot system) for 30 minutes at 10 volts in transfer buffer (Life Technologies, Cat.# NP0006) containing 10% methanol. […] After the incubation the membrane was washed 3 times with 10 ml TTBS and then incubated for 1 hour with secondary antibodies: a goat anti-rabbit IgG conjugated to IRdye® 800CW (Li-Cor, Cat.#926-32211) and a goat anti-mouse IgG conjugated to IRdye® 680RD (Li-Cor, Cat.#926-68070) both diluted 1:10,000 in blocking buffer. The membrane was again washed 3 times with 10 ml TTBS and scanned on a Li-Cor Odyssey scanner. The bands corresponding to full length HER2 protein and to actin were quantified using the scanner software. Each HER2 band was normalized to the actin band and expressed as a percentage of HER2 protein from cells that were not treated with any anti-HER2 antibodies.

SNU-5 cells = assay: SNU5 mouse tumor xenograft model; format: in vivo; settings: FIG. 13
TOV-21G cells = assay: TOV-21G mouse tumor xenograft model; format: in vivo; settings: FIG. 14; Example 16E 5 mg/kg or 2 mg/kg; Kadcyla 10 mg/kg; IV single dose
Source text: (§1) Tumor growth inhibition (% TGI) was defined as the percent difference in median tumor volumes (MTVs) between treated and control groups.
In a PR response, the tumor volume was 50% or less of its Day 1 volume for three consecutive measurements during the course of the study, and equal to or greater than 13.5 mm^3 for one or more of these three measurements. In a CR response, the tumor volume was less than 13.5 mm3 for three consecutive measurements during the course of the study. An animal with a CR response at the termination of a study was additionally classified as a tumor-free survivor (TFS). Animals were monitored for regression responses.
Female NCr nu/nu were inoculated subcutaneously with TOV-21G cells (n=10 for each group). Test compounds or vehicle were dosed IV as a single dose on day 1 or as indicated. Tumor size was measured at the times indicated in FIGS. 8 to 18 using digital calipers. Tumor volume was calculated and was used to determine the delay in tumor growth. Mice were sacrificed when tumors reached a size of 800 to 1500 mm^3. Tumor volumes are reported as the mean±SEM for each group.

H522 cells = assay: H522 mouse tumor xenograft model; format: in vivo; settings: FIG. 15; Example 16E 5 mg/kg; Example 17B 5 mg/kg; Kadcyla 10 mg/kg; IV single dose
SKOV3 cells = assay: SKOV3 mouse tumor xenograft model; format: in vivo; settings: FIG. 16
BRE-0333 HER2 1+ = BRE-0333 HER2 1+ patient derived xenograft model; format: in vivo; settings: FIG. 18; 3 mg/kg IV single dose; n=8
Experimental: as §1
(§2) Treatment efficacy was determined from the incidence and magnitude of regression responses of the tumor size observed during the study. […] In a PR response, the tumor volume was 50% or less of its Day 1 volume for three consecutive measurements during the course of the study, and equal to or greater than 13.5 mm^3 for one or more of these three measurements. In a CR response, the tumor volume was less than 13.5 mm3 for three consecutive measurements during the course of the study. An animal with a CR response at the termination of a study was additionally classified as a tumor-free survivor (TFS). Animals were monitored for regression responses.

MAXF_1162 HER2 3+ = MAXF_1162 HER2 3+ patient derived xenograft model; format: in vivo; settings: FIG. 19, n=10
Experimental: as §1, §2

BT474 tumor fragments = assay: BT474 mouse tumor xenograft model; format: in vivo; settings: FIG. 20; 5 mg/kg or 2 mg/kg IV single dose at day 1
[4] = tested on: low HER2-expressing breast and gastric cancer models; assay: Low HER2-expressing breast and gastric cancer models; format: in vivo; settings: conjugate single doses of 1 mg/kg or […]; Kadcyla at doses of 10 mg/kg and above
HER2-driven tumor models = assay: HER2-driven tumor models, combination with trastuzumab and pertuzumab; format: in vivo
[5] = in vivo
[6] = Pharmacokinetics and tolerability in non-human primates; settings: therapeutic doses
SKBR3 cells [7] = assay: HER2 internalization in SKBR3 cells by fluorescence microscopy; format: cell-based; settings: 90 minutes, in combination with trastuzumab-Alexa-647 and pertuzumab
Experimental: The effect of a combination of anti-HER2 antibodies on the HER2 internalization in SKBR3 cells was investigated by fluorescence microscopy. […] SKBR3 cells were seeded in 4 chamber microscope slides and allowed to attach by overnight growth in DMEM media (ATCC, Manassas, Va., Cat.#30-2002) with 10% fetal bovine serum (FBS) (Gibco®, Life Technologies, Grand Island, N.Y., Cat.#16140-071) at 37° in 5% CO2. […] The location of trastuzumab was visualized using fluorescence microscope.

NCI-N87 cells = assay: NCI-N87 mouse tumor xenograft model; format: in vivo; settings: FIG. 12; Example 16F […] single dose day 1; trastuzumab 15 mg/kg + pertuzumab 15 mg/kg weekly for 3 weeks
Calu-3 cells = assay: Calu-3 mouse tumor xenograft model; format: in vivo; settings: FIG. 17, 5 mg/kg IV single dose at day 1
[8] = with Trastuzumab and Pertuzumab, 0 hr
[9] = with Trastuzumab and Pertuzumab, 24 hrs
[10] = with Trastuzumab and Pertuzumab, […]

Row | Substance | Percent internalized (SKBR3 cells [2]; antibody alone, 0 hr) [%] | Percent internalized (SKBR3 cells [2]; antibody alone, 24 hrs) [%] | Percent internalized (SKBR3 cells [2]; antibody alone, […]) [%] | Percent internalized (SKBR3 cells [2]; [8]) [%] | Percent internalized (SKBR3 cells [2]; [9]) [%] | Percent internalized (SKBR3 cells [2]; [10]) [%] | Percent internalized (SKBR3 cells [2]; with Trastuzumab, 0 hr) [%] | Percent internalized (SKBR3 cells [2]; with Trastuzumab, 24 hrs) [%] | Percent internalized (SKBR3 cells [2]; with Trastuzumab, […]) [%] | HER2 remaining [3] [%] | other results
1 | XMT 1520: affinity matured fully human anti-HER2 IgG1 antibody, heavy chain SEQ ID NO: 7, light chain SEQ ID NO: 8 | 2 | 78 | 14 | 3 | 101 | 89 | 2 | 100 | 23 | 31 | AKT phosphorylation, percentage of untreated cells [1]: about 30%; full length HER2, percentage of untreated cells [3]: 68%
2 | XMT 1519-(EG2-MI-(10 kDa PHF-BA-(AF-HPA-Ala))) [Example 16E] | – | – | – | – | – | – | – | – | – | – | tumor free survivors (SNU-5 cells; 2 mg/kg IV single dose): 100%; tumor free survivors (SNU-5 cells; 5 mg/kg IV single dose): 100%; tumor response (TOV-21G cells): tumor retardation; tumor response (H522 cells): tumor retardation; complete responses (number of animals) (SKOV3 cells; 5 mg/kg IV single dose, n=10): 10; regressions (SKOV3 cells; 5 mg/kg IV single dose, n=10): 100%
3 | XMT 1519-(EG2-MI-(10 kDa PHF-BA-(AF-HPA-Ala))) [Example 16H] | – | – | – | – | – | – | – | – | – | – | tumor response (BRE-0333 HER2 1+): tumor retardation; regression responses and tumor free survivors (MAXF_1162 HER2 3+; 1 mg/kg IV single dose at day 1): 100%; regression responses and tumor free survivors (MAXF_1162 HER2 3+; 3 mg/kg IV single dose at day 1): 100%; tumor response (BT474 tumor fragments): complete tumor regressions
4 | XMT 1519-(EG2-MI-(PHF-BA-(AF-HPA-Ala))) | – | – | – | – | – | – | – | – | – | – | tumor response [4]: complete regression; efficacy in combination with trastuzumab and pertuzumab (HER2-driven tumor models): synergistic efficacy; pharmacokinetic profile [5]: excellent pharmacokinetic profile; tolerability [6]: well tolerated
5 | XMT 1519: fully human anti-HER2 IgG1 monoclonal antibody, heavy chain SEQ ID NO: 5, light chain SEQ ID NO: 6 | 2 | 83 | – | 2 | 88 | 83 | 2 | 107 | – | 42 | effect on HER2 internalization and localization (SKBR3 cells [7]): promotes the internalization and trafficking of HER2 to the lysosomes
6 | XMT 1518: affinity matured fully human anti-HER2 IgG1 antibody, heavy chain SEQ ID NO: 3, light chain SEQ ID NO: 4 | – | 88 | 16 | 2 | – | 90 | 2 | 106 | 41 | 20 | full length HER2, percentage of untreated cells [3]: 78%
7 | XMT 1517: fully human anti-HER2 IgG1 monoclonal antibody, heavy chain SEQ ID NO: 1, light chain SEQ ID NO: 2 | 4 | 83 | 11 | 4 | 107 | – | 3 | 106 | 17 | 40 | –
8 | rituximab-(EG2-MI-(10 kDa PHF-BA-(AF-HPA-Ala))) [Example 17B, reference compound] | – | – | – | – | – | – | – | – | – | – | tumor response (H522 cells): did not attain the threshold for therapeutic activity; tumor response (SKOV3 cells; Kadcyla 10 mg/kg, Example 17B 5 mg/kg, IV single dose): did not attain the threshold for therapeutic activity
9 | XMT 1519-(EG2-MI-(10 kDa PHF-BA-(AF-HPA-Ala))) [Example 16F] | – | – | – | – | – | – | – | – | – | – | partial response out of ten (NCI-N87 cells): one; remained tumor free (number of animals) (Calu-3 cells; Day 60): six; complete responses (number of animals) (Calu-3 cells; n=10): eight; partial responses (number of animals) (Calu-3 cells; n=10): two; regression responses (Calu-3 cells; n=10): 100%
